Legend:
[1] = test system: FcεRI α- and γ-chains; assay: Expression levels of the proteins constituting FcεRI (α- and γ-chains) in KU812 cells, immunoprecipitation and blotting; type: cell-based, human; settings: serum-free, 6 hours, β-actin control
Method: The expression of each of the FcεRI α- and γ-chains was detected by collecting cells having been incubated by adding chrysin, lysing the cells, conducting immunoprecipitation, subjecting the immunoprecipitate to DS-PAGE and then blotting. β-Actin was employed as a control.
KU812 cells (1×10^6 cells/mL) were incubated under serum-free conditions in RPMI 1640 medium, to which chrysin had been added, for 6 hours. After incubating, the cells were washed with PBS once and then lysed by shaking together with Lysis buffer (composition: 50 mM Tris-HCl pH 7.5, 1% Triton X-100, 150 mM NACl, 1 mM EDTA, 50 mM NaF, 30 mM Na4P2O7, 1 mM PMSF, 2 μg/mL aprotinin, 1 mM pervandate) at 4° C. for 30 min. Subsequently, the mixture was centrifuged at 12,000×g for 10 min at 4° C. to precipitate insoluble matters. The supernatant was collected and proteins were quantified. The samples were diluted with Lysis buffer so that all of them had the same protein concentration, thereby giving lysate samples.
Protein A Sepharose beads (Amersham Pharmacia Biotech) were shaken in Lysis buffer (composition: 50 mM Tris-HCl pH 7.5, 150 mM NACl, 1% Triton X-100, 1 mM EDTA, 50 mM NaF, 30 mM Na4P2O7, 1 mM PMSF, 2 μg/mL aprotinin), to which CRA-1 antibody had been added to give a final concentration of 1 μg/mL, for 2 to 4 hours at 4° C. so as to allow the beads to adsorb CRA-1 antibody. […]

[2] = test system: high-affinity IgE receptor (FcεRI); assay: FcεRI expression amount on the cell surface of KU812 cells by flow cytometry; type: cell-based, human; settings: for FcεRI expression suppressive rate (%): 24 hours
Method: By using antihuman FcRI antibody (CRA1), the FcεRI expression amount on the surface of human basophil-like cell line KU812 cells was analyzed by flow cytometry. Cells having been incubated by adding DMSO alone were compared with cells having been incubated by adding chrysin. The ratio of overexpression of FcεRI is indicated in percentage. As a basal medium for incubating cells, use was made of RPMI 1640 (Nissui, Japan), to which 100 U/mL of penicillin (Meiji Pharmaceutical Company, Tokyo, Japan), […] of streptomycin (Meiji Pharmaceutical Company, Tokyo, Japan), 12.5 mM of MaHCO3 (Wako Pure Chemical Industries, Osaka, Japan) and 10 mM of HEPES Wako Pure Chemical Industries) had been added. Fetal bovine serum (FBS) purchased form Bio Source International was added to the basal medium to give a concentration of 5 to 10%. Human basophil-like cell line KU812 employed in this experiment was assigned by Japan Collection of Research Bioresources (JCRB) and subcultured and maintained in RPMI 1640 medium comprising 5 to 10% of FBS at 37° C. in 5% CO2 gas under humidification. KU812 cells were incubated in RPMI 1640 medium, to which chrysin dissolved in DMSO had been added, for 0 to 24 hours. A system wherein the cells were incubated in the medium comprising DMSO alone was used as a control. After incubating, the cells were collected and incubated in 5% FBS-PBS, to which 10 μg/mL of antihuman FcεRI α chain mouse monoclonal antibody CRA-1 (Kyokuto Pharmaceutical) had been added, at 4° C. for 40 to 60 min. As a negative control, 10 μg/mL of mouse control IgG2b antibody (DAKO) was used. Then, the cells were washed with ice-cooled PBS once and incubated in 5% FBS-PBS, to which 10 μg/mL of antimouse IgG2b FITC-labeled antibody (Protos Immunoresearch) had been added, at 4° C. for 40 to 60 min. After incubating, the cells were washed with PBS and then resuspended in PBS. The cell suspension thus obtained was analyzed by flow cytometry. In the flow cytometry analysis, FACS Calibur (Becton Sickinson, Sunnyvale, Calif.) was employed. The secondary antibody reaction and the subsequent procedures were conducted in the dark and the cells were preserved on ice while conducting the analysis. KU812 cells (5×10^5 cells/mL) was incubated in 5% bovine fetal serum comprising RPMI 1640 medium, to which chrysin (0, 1, 5 and 10 μM) and apigenin (purchased from Aldrich Chem. Co., St. Louis, Mo.; 0, 1, 5 and 10 μM) had been added, for 24 hours. After incubating, the FcεRI expression level on the cell surface was measured by flow cytometry (experimental procedure: see [0047]).

## O=c1cc(-c2ccccc2)oc2cc(O)cc(O)c12 [Chrysin, 5,7-dihydroxyflavone]
[1]
  expression of the proteins constituting FcεRI (α- and γ-chains): suppressive effect
[2]; flow cytometry with CRA1 antibody, compared with DMSO alone
  FcεRI expression amount on cell surface: lowering
[2]; single agent 1 μM
  FcεRI expression suppressive rate (%): 0%
[2]; single agent 5 μM
  FcεRI expression suppressive rate (%): 11.5%
[2]; single agent 10 μM
  FcεRI expression suppressive rate (%): 19.8%

Source: US20080262080A1, “Allergy Suppressive Agent” (KYUSHU UNIVERSITY, NATIONAL UNIVERSITY CORPORATION, priority 2004, published 2008)
